Measured values reported in patent publication US7087385B2, “Promoter sequences for urocortin II and the use thereof” (Wisconsin Alumni Research Foundation, priority 2002, dated 2006).
Where no end group is shown, it is not given here.

What was measured:
human UCN II promoter [1] = assay: Dexamethasone induced expression from UCN II promoter fragments in CHO-K1 cultures; format: cell-based, hamster; settings: 20 μM dexamethasone, 22 h
Text: (§1) The above constructs containing the human UCN II promoter fragments placed upstream of the firefly luciferase gene can be used to transfect immortalized cell lines. The constructs can be transfected into CHO-K1 cell lines using Lipofectamine 2000 (Invitrogen Life Technologies). Primary cultures of the central nervous system, as well as additional immortalized cell lines, are also appropriate for these transfections. To control for transfection efficiency, the cells can also be co-transfected with the pRL-TK vector (Promega). The pRL-TK vector contains the Renilla luciferase gene downstream of the herpes simplex virus thymidine kinase promoter, a promoter which provides low to moderate levels of expression. Cell lysates can be assayed for total protein using the BCA assay (Pierce, Rockford, Ill.) to standardize for the protein extraction. The level of reporter gene expression from a standardized amount of cell extract can be quantified by measuring luciferase activity using a luminometer (EG&G Wallac, Gaithersburg, Md.) and the dual-luciferase reporter assay system (Promega). Firefly luciferase activity reflects UCN II promoter activity and Renilla luciferase activity can be used to normalize data between experiments.
Using the methods described previously, CHO-K1 cultures were transiently transfected with the UCN II promoter constructs. […]

human UCN II promoter [2] = assay: Dexamethasone induced expression from UCN II promoter fragments in CATH.a cultures; format: cell-based, mouse; settings: 20 μM dexamethasone, 22 h
Text: as §1
In the following experiments, we confirmed the dexamethasone treatment results in the CATH.a cell line. Using the methods described previously, CATH.a cultures were transiently transfected with the UCN II promoter constructs. Immediately following transfection equal numbers of cultures (N=12 per group) were treated with either 20 μM dexamethasone or were given vehicle. Twenty-two hours following treatment, the cultures were harvested and assayed for luciferase activity (see FIG. 7).

human UCN II promoter [3] = assay: CRF induced expression from UCN II promoter fragments in CATH.a cultures; format: cell-based; settings: 1 μM CRF, 22 h
Text: as §1
Using the methods described previously, CATH.a cultures were transiently transfected with the UCN II promoter constructs. Immediately following transfection equal numbers of cultures (N=4 per group) were treated with either 1 μM CRF or with vehicle. Twenty-two hours following treatment, the cultures were harvested and assayed for luciferase activity (see FIG. 8). CATH.a cultures are known to express CRF receptors and both CRF and UCN II are known ligands for the receptors. […] The goal of the present experiment was to determine if CRF receptor-dependent second messenger system activation affected UCN II gene expression.

Row | Molecule | decrease in expression compared to vehicle, −1426 construct (human UCN II promoter [1]) [%] | expression within the remaining constructs vs vehicle (human UCN II promoter [1]) | decrease in expression compared to vehicle, −1426 construct (human UCN II promoter [2]) [%] | decrease in expression compared to vehicle, −1987 construct (human UCN II promoter [2]) [%] | expression within the remaining constructs vs vehicle (human UCN II promoter [2]) | expression within the remaining constructs vs vehicle (human UCN II promoter [3]) | increase in expression over vehicle, −1426 construct (human UCN II promoter [3]) [%] | increase in expression over vehicle, −1987 construct (human UCN II promoter [3]) [%] | expression within the −1987 and −1426 constructs vs vehicle (human UCN II promoter [3]; P<0.05 for −1987, P<0.001 for −1426, preliminary data)
1 | C[C@@H]1C[C@H]2[C@@H]3CCC4=CC(=O)C=C[C@]4(C)[C@@]3(F)[C@@H](O)C[C@]2(C)[C@@]1(O)C(=O)CO [dexamethasone] | 15 | no significant effect | 39 | 29 | no effect |  |  |  | 
2 | corticotropin-releasing factor (SEEPPISLDLTFHLLREVLEMARAEQLAQQAHSNRKLMEII; ends and bridges not checked; UniProt P06850 154-194, looked up) [CRF, neurotransmitter peptide, ligand of CRF receptors] |  |  |  |  |  | no significant effect | 52 | 29 | significantly increased expression
